Among the data in ChEMBL document CHEMBL1909046, “DrugMatrix in vitro pharmacology data” are IC50 and Ki values, retold here.

For data set [1], the target named is T1, Alpha-2C adrenergic receptor (Homo sapiens, UniProt P18825).
T1 sequence (P18825 whole entry): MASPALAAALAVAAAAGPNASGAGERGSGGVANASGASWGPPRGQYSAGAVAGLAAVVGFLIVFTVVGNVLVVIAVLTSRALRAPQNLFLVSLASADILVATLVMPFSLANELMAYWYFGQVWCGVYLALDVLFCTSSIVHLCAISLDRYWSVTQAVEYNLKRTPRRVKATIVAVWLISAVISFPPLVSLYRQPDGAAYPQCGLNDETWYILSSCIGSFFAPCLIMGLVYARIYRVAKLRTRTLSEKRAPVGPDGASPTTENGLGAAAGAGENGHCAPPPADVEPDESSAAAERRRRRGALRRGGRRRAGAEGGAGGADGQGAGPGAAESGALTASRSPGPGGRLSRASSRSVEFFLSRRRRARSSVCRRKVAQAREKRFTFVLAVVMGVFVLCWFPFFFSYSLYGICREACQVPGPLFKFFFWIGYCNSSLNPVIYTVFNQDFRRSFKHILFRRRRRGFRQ
The experiment in a line: DRUGMATRIX: Adrenergic Alpha-2C radioligand binding (ligand: [3H] MK-912). The data set is classed as cell membranes, Sf9, Membrane. The following applies: sf9.

Data set [2] addresses 5-hydroxytryptamine receptor 2B (Homo sapiens, UniProt P41595). The data set is classed as cell membranes, CHO-K1, Membrane.
For data set [3], the target named is T2, Vasoactive intestinal polypeptide receptor 1 (Homo sapiens, UniProt P32241). Further: in other assays of this panel Not Active means under 50% inhibition at 10 µM.
T2 sequence (P32241 whole entry): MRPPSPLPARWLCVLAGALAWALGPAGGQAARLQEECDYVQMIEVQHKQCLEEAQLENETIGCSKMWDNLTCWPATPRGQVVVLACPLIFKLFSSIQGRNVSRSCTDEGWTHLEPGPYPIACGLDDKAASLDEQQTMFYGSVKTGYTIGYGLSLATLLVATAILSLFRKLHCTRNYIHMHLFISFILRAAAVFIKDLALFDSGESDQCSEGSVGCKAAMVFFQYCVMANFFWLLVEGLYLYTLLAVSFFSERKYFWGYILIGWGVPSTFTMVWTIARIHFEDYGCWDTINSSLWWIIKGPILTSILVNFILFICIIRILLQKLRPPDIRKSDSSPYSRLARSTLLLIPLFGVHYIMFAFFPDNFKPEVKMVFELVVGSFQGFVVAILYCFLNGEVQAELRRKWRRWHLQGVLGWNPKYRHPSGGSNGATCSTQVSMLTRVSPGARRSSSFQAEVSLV
The data set is classed as cell membranes, Membrane. Particulars: ht-29.

The next data set addresses D(1A) dopamine receptor (Homo sapiens, UniProt P21728). In words: DRUGMATRIX: Dopamine D1 radioligand binding (ligand: [3H] SCH-23390). It counts as cell membranes, CHO, Membrane. The following applies: cho; Not Active = under 50% inhibition at 10 µM.
Data set [4] in a line: DRUGMATRIX: Nicotinic Acetylcholine radioligand binding (ligand: [125I] Epibatidine). It counts as cell membranes, Membrane. The following applies: imr-32; Not Active = under 50% inhibition at 10 µM.
The nature of data set [5]: DRUGMATRIX: Phosphodiesterase PDE3 enzyme inhibition (substrate: [3H]cAMP + cAMP). The following applies: platelet; Not Active = under 50% inhibition at 10 µM. The data set is classed as tissue-based, Homo sapiens.
Data set [6] deals with Protein kinase C alpha type (Homo sapiens, UniProt P17252). The data set is classed as cell-based. The following applies: sf9.
Data set [7] has as its target 5-hydroxytryptamine receptor 1B (Rattus norvegicus, UniProt P28564). It counts as cell membranes, Wistar, Cerebral cortex, Membrane. Further: in other assays of this panel Not Active means under 50% inhibition at 10 µM.
Another data set deals with T3, Cytochrome P450 1A2 (Homo sapiens, UniProt P05177).
T3 sequence (P05177 whole entry): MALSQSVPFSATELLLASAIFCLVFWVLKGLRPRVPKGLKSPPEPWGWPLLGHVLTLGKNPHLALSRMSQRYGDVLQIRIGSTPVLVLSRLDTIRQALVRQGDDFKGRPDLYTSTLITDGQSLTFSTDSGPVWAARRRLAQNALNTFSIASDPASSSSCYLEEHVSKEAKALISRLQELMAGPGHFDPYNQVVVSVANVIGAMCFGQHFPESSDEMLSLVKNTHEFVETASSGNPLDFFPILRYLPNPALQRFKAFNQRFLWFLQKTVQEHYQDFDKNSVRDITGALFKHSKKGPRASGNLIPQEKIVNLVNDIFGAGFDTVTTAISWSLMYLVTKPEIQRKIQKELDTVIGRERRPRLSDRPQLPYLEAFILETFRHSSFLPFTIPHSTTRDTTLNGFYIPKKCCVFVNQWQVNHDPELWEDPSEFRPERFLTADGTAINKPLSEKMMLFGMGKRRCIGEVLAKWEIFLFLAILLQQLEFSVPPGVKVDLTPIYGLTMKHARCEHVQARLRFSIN
Particulars: bti-tn-5b1-4.

The next data set concerns the target Cytochrome P450 2D6 (Homo sapiens, UniProt P10635). The following applies: bti-tn-5b1-4. Further: in other assays of this panel Not Active means under 50% inhibition at 10 µM.
A further data set deals with T4, Glucocorticoid receptor (Homo sapiens, UniProt P04150).
T4 sequence (P04150 whole entry): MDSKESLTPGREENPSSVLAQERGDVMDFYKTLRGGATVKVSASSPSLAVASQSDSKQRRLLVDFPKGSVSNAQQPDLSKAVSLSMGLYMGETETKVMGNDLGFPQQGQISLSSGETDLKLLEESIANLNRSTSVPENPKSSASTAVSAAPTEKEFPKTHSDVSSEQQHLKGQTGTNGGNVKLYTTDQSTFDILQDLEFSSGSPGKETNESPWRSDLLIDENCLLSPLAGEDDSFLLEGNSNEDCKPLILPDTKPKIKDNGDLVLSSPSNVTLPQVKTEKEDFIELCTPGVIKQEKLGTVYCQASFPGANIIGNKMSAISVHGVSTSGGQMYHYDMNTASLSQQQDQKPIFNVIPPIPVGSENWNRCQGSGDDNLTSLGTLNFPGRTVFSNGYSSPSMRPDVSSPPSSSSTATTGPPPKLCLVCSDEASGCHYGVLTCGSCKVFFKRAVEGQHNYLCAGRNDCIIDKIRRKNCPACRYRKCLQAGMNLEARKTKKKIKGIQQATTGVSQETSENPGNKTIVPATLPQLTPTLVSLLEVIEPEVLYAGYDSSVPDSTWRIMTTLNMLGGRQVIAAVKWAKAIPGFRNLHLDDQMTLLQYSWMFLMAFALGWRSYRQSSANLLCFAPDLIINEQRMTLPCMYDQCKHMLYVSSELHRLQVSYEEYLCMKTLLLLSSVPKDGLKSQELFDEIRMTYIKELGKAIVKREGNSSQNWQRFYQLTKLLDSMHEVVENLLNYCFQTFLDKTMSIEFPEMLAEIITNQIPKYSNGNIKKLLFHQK
Particulars: hela s3.

Data set [8] concerns the target Voltage-gated inwardly rectifying potassium channel KCNH2 (Homo sapiens, UniProt Q12809). Particulars: hek293. Further: in other assays of this panel Not Active means under 50% inhibition at 10 µM.

Molecules are shown by their SMILES.

Chain of Voltage-gated inwardly rectifying potassium channel KCNH2 (Q12809 whole entry): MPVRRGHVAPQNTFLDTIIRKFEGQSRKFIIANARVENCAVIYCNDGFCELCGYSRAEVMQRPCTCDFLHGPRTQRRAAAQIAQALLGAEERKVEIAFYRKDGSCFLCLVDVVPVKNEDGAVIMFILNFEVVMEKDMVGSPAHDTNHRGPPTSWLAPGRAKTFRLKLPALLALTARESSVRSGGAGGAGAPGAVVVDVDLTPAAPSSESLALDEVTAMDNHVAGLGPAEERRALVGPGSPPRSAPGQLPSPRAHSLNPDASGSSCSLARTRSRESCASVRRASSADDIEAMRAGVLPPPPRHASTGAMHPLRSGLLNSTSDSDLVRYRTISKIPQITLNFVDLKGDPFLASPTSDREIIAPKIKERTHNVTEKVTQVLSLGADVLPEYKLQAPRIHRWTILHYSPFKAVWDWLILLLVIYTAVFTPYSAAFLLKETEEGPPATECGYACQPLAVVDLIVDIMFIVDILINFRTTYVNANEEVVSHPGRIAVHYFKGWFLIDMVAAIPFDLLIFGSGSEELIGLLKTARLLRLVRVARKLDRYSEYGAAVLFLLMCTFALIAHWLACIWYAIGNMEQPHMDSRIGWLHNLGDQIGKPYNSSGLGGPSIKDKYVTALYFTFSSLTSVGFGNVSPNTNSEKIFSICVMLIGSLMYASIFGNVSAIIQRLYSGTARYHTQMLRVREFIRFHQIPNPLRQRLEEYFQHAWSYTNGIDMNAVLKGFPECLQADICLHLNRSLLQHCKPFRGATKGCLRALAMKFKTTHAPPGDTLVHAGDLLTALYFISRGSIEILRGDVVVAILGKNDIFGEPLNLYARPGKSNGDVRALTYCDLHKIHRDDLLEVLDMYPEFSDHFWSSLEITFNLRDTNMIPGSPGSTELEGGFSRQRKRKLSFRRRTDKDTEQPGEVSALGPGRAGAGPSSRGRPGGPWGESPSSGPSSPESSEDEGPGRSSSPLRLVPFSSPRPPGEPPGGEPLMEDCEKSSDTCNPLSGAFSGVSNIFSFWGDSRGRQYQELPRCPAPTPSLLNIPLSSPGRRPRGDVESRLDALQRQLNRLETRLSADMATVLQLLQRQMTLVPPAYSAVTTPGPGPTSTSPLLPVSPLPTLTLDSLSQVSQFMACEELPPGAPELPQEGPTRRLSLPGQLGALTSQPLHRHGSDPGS
Chain of 5-hydroxytryptamine receptor 2B (P41595 whole entry): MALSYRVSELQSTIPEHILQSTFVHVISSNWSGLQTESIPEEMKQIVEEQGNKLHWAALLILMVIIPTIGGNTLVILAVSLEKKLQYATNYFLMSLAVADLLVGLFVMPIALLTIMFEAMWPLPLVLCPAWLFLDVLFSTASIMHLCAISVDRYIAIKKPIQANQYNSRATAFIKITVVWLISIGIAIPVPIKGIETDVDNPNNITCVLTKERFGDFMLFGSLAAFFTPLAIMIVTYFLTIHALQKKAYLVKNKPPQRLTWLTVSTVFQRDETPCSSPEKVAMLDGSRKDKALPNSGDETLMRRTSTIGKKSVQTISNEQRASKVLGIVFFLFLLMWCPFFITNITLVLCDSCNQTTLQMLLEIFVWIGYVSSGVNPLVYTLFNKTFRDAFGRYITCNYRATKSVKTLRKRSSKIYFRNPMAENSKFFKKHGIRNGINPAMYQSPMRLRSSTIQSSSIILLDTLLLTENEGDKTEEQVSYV
Chain of 5-hydroxytryptamine receptor 1B (P28564 whole entry): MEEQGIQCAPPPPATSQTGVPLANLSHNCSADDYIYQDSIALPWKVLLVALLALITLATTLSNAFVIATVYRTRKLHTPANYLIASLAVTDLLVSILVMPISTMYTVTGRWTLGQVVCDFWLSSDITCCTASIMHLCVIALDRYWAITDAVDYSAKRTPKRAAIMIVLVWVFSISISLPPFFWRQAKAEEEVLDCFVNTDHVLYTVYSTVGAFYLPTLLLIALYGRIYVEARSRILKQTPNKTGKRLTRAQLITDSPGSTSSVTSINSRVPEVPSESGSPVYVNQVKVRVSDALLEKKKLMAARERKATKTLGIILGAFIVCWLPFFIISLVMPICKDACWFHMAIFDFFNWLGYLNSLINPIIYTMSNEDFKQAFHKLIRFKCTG
Chain of Cytochrome P450 2D6 (P10635 whole entry): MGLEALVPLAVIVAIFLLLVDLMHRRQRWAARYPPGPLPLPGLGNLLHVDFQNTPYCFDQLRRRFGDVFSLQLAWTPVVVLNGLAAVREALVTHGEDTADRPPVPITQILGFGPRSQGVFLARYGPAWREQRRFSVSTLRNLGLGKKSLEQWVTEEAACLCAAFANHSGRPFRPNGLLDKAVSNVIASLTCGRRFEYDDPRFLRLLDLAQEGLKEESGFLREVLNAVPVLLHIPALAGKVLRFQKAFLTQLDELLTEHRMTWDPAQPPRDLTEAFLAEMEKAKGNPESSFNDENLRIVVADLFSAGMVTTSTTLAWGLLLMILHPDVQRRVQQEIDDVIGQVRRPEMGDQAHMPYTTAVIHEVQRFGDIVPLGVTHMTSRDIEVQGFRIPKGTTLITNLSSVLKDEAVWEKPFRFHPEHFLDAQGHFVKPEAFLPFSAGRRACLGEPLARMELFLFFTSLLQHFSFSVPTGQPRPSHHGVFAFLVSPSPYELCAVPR
Chain of D(1A) dopamine receptor (P21728 whole entry): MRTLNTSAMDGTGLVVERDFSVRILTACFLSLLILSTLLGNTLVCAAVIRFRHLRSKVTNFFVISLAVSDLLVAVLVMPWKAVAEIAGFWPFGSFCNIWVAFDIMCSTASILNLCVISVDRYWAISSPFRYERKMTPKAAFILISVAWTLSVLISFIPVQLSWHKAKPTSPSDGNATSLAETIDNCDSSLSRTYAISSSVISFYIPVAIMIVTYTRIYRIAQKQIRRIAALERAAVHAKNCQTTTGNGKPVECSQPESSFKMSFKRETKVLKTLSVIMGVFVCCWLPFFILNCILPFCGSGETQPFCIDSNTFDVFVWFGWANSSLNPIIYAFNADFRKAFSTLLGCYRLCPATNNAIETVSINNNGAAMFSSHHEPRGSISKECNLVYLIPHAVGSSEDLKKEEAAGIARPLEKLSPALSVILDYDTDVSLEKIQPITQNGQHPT

For `Clc1ccc(C(c2ccccc2Cl)C(Cl)Cl)cc1` (stereo not given) [MITOTANE], the IC50 result was “Not Active” in [1]; 4.83 µM in [2] (read-out: IC50); “Not Active” in data set [3]; “Not Active” at D(1A) dopamine receptor; “Not Active” in [4]; “Not Active” in data set [5]. Besides, the IC50 result (in data set [6]; in [7]; on Cytochrome P450 1A2; against Cytochrome P450 2D6; at Glucocorticoid receptor; in data set [8]) was “Not Active” throughout. Further, the Ki is 3.08 µM in [2] (read-out: Ki); “Not Active” in data set [4]; “Not Active” in data set [5]; “Not Active” on Cytochrome P450 1A2; “Not Active” on Cytochrome P450 2D6; “Not Active” in data set [8].
In the case of `COc1c(C)c2c(c(O)c1C/C=C(\C)CCC(=O)OCCN1CCOCC1)C(=O)OC2` [MYCOPHENOLATE MOFETIL], the IC50 result (in data set [1]; in [2] (cho-k1); in data set [3]; at D(1A) dopamine receptor; in data set [4]; in [5]) was “Not Active” each time. Moreover, the IC50 result (in data set [6]; in data set [7]; against Cytochrome P450 1A2; at Cytochrome P450 2D6; at Glucocorticoid receptor; in data set [8]) was “Not Active” each time. Further, the Ki entry (in data set [4]; in data set [5]; on Cytochrome P450 1A2; at Cytochrome P450 2D6; in data set [8]) was “Not Active” each time.
In the case of `NC(=O)c1ncn([C@@H]2O[C@H](CO)[C@@H](O)[C@H]2O)n1` [RIBAVIRIN], the IC50 result (in data set [1]; in [2] (cho-k1); in [3]; on D(1A) dopamine receptor; in data set [4]; in data set [5]) was “Not Active” each time. Besides, the IC50 result (in [6]; in [7]; on Cytochrome P450 1A2; on Cytochrome P450 2D6; against Glucocorticoid receptor; in data set [8]) was “Not Active” throughout. The Ki entry (in data set [4]; in [5]; on Cytochrome P450 1A2; at Cytochrome P450 2D6; in [8]) was “Not Active” throughout.
Consider `O=[N+]([O-])c1cc([As](=O)(O)O)ccc1O` [ROXARSONE], for which the IC50 result (in data set [1]; in data set [2] (cho-k1); in data set [3]; on D(1A) dopamine receptor; in data set [4]; in data set [5]) was “Not Active” in each case. The IC50 entry (in data set [6]; in data set [7]; on Cytochrome P450 1A2; against Cytochrome P450 2D6; at Glucocorticoid receptor; in data set [8]) was “Not Active” throughout. For the same compound, the Ki entry (in data set [1]; in data set [2] (cho-k1); in data set [3]; at D(1A) dopamine receptor; in data set [4]; in data set [5]) was “Not Active” each time. Besides, the Ki entry (in [6]; in [7]; at Cytochrome P450 1A2; on Cytochrome P450 2D6; at Glucocorticoid receptor; in [8]) was “Not Active” each time.
`CC[C@H]1OC(=O)[C@H](C)[C@@H](O[C@H]2C[C@@](C)(OC)[C@@H](O)[C@H](C)O2)[C@H](C)[C@@H](O[C@@H]2O[C@H](C)C[C@H](N(C)C)[C@H]2O)[C@](C)(O)C[C@@H](C)/C(=N\OCOCCOC)[C@H](C)[C@@H](O)[C@]1(C)O` [ROXITHROMYCIN]: the IC50 result (in data set [1]; in data set [2] (cho-k1); in data set [3]; on D(1A) dopamine receptor; in [4]; in data set [5]) was “Not Active” throughout. The IC50 entry (in data set [6]; in data set [7]; on Cytochrome P450 1A2; on Cytochrome P450 2D6; on Glucocorticoid receptor; in data set [8]) was “Not Active” throughout. For the same compound, the Ki result (in data set [4]; in data set [5]; at Cytochrome P450 1A2; at Cytochrome P450 2D6; in data set [8]) was “Not Active” each time.
As for `NC(=O)c1ccccc1O` [SALICYLAMIDE], the IC50 entry (in data set [1]; in [2] (cho-k1); in data set [3]; at D(1A) dopamine receptor; in data set [4]; in data set [5]) was “Not Active” in each case. The IC50 result (in [6]; in [7]; on Cytochrome P450 1A2; against Cytochrome P450 2D6; against Glucocorticoid receptor; in [8]) was “Not Active” each time. For the same compound, the Ki result (in [4]; in data set [5]; at Cytochrome P450 1A2; on Cytochrome P450 2D6; in [8]) was “Not Active” in each case.
